pKd: −log10 of the molar value.
Target: T1, fused G6PD::6PGL protein (Giardia duodenalis, UniProt A8BWM5)
T1 construct: gene GL50803_008682; natural fusion of G6PD and 6PGL domains in one open reading frame; pET-3a/g6pd::6pgl in E. coli BL21(DE3)Δzwf::kan^r; 2',5'-ADP Sepharose and Sephacryl 200; dimer
T1 sequence (A8BWM5 1-742): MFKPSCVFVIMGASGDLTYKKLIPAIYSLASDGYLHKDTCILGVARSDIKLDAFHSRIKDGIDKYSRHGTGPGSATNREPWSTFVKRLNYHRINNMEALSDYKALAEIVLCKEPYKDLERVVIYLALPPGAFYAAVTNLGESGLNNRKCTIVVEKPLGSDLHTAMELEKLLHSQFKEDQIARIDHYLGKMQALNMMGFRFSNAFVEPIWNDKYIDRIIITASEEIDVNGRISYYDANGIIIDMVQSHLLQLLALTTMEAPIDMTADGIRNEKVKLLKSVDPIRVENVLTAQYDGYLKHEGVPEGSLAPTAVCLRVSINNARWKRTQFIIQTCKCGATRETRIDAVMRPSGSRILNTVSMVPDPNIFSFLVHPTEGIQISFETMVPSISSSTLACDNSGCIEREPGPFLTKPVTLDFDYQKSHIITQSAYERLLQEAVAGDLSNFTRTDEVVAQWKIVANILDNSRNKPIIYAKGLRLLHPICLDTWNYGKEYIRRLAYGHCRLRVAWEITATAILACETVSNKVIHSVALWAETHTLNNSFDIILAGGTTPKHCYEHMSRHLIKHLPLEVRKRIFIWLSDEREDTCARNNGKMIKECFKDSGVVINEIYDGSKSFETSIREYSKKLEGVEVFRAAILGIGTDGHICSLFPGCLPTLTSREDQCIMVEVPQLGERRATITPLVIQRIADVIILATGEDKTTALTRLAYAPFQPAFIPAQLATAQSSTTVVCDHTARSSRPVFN
Experiment: intrinsic tryptophan fluorescence quenching titration
Assay type: binding

NC(=O)c1ccc[n+]([C@@H]2O[C@H](COP(=O)(O)OP(=O)(O)OC[C@H]3O[C@@H](n4cnc5c(N)ncnc54)[C@H](OP(=O)(O)O)[C@@H]3O)[C@@H](O)[C@H]2O)c1 [NADP^+]
pKd: 7.20

Reference: article PMC7022596, “Identification of the NADP^+ Structural Binding Site and Coenzyme Effect on the Fused G6PD::6PGL Protein from Giardia lamblia” (Biomolecules, 2019)
